For this test, the target named is SARS-CoV-2 3CL protease (Severe acute respiratory syndrome coronavirus 2, UniProt P0DTD1). Kind of test: biochemical.

Each structure is given as a SMILES string. Several values for one entry are separate records, joined by “and”; a condition that tells them apart may be missing. Equal entries are not always repeated. Where two headings read alike, the source gives them in different places.

The source of these data is patent US12559474B2, “Triazine derivatives having virus replication inhibitory activity and pharmaceutical composition comprising the same” (priority 2021, dated 2026).

The IC50 is the midpoint of a concentration-inhibition curve.

On to `Cn1cc2cc(Nc3nc(=O)n(Cc4c[nH]c(=O)[nH]c4=O)c(=O)n3Cc3cc(F)c(F)c(F)c3)c(Cl)cc2n1` [Compound I-0405], for which the IC50 (IC50) is < 100 nM. Same read-out and setting: then `Cc1nc2cc(Cl)c(Nc3nc(=O)n(Cc4c[nH]c(=O)[nH]c4=O)c(=O)n3Cc3cc(F)c(F)c(F)c3)cc2n1C` [Compound I-0407], with < 100 nM. The same measure, in the same setting: the value for `COc1ccc(Nc2nc(=O)n(Cc3cn(-c4ccccc4)cn3)c(=O)n2Cc2cc(F)c(F)c(F)c2)cc1` [Compound I-0412] was 5100 nM and 1000 to 10000 nM; that for `COC(=O)Cn1cnc(Cn2c(=O)nc(Nc3ccc(OC)cc3)n(Cc3cc(F)c(F)c(F)c3)c2=O)c1` [Compound I-0414] was 250 nM and 100 to 1000 nM. Same read-out and setting: the value for `COc1ccc(Nc2nc(=O)n(Cc3cn(CCO)cn3)c(=O)n2Cc2cc(F)c(F)c(F)c2)cc1` [Compound I-0415] was 3000 nM and 1000 to 10000 nM.

On to `COc1ccc(Nc2nc(=O)n(Cc3cn(CC(N)=O)cn3)c(=O)n2Cc2cc(F)c(F)c(F)c2)cc1` [Compound I-0416], for which the IC50 (IC50) is 3500 nM and 1000 to 10000 nM.

For `CN(C)CCn1cc2cc(Nc3nc(=O)n(Cc4ccc[nH]c4=O)c(=O)n3Cc3cc(F)c(F)c(F)c3)c(Cl)cc2n1` [Compound I-0427], under “IC50”, the IC50 is < 100 nM. Same read-out and setting: then `CN1Cc2cc(Nc3nc(=O)n(Cc4ccc[nH]c4=O)c(=O)n3Cc3cc(F)c(F)c(F)c3)ccc2C1=O` [Compound I-0438], with 740 nM and 100 to 1000 nM; and `Cc1nc2cc(Cl)c(Nc3nc(=O)n(Cc4ccc[nH]c4=O)c(=O)n3Cc3cc(F)c(F)c(F)c3)cc2n1C` [Compound I-0439], with < 100 nM; and `Cn1nnc2cc(Cl)c(Nc3nc(=O)n(Cc4ccc[nH]c4=O)c(=O)n3Cc3cc(F)c(F)c(F)c3)cc21` [Compound I-0440], with < 100 nM.

Take `Cc1cn2cc(Nc3nc(=O)n(Cc4ccc[nH]c4=O)c(=O)n3Cc3cc(F)c(F)c(F)c3)c(Cl)cc2n1` [Compound I-0441]: the IC50 (IC50) was < 100 nM.

Regarding `Cc1nc2cc(Cl)c(Nc3nc(=O)n(Cc4ccc[nH]c4=O)c(=O)n3Cc3cc(F)c(F)c(F)c3)cn2n1` [Compound I-0442], the IC50 (IC50) is < 100 nM. The same measure, in the same setting: then `COCCn1c(C)nc2cc(Cl)c(Nc3nc(=O)n(Cc4ccc[nH]c4=O)c(=O)n3Cc3cc(F)c(F)c(F)c3)cc21` [Compound I-0443], with < 100 nM. The same measure, in the same setting: the value for `Cc1nc2cc(Cl)c(Nc3nc(=O)n(Cc4ccc[nH]c4=O)c(=O)n3Cc3cc(F)c(F)c(F)c3)cc2n1CC(C)(C)O` [Compound I-0445] was < 100 nM. Still for that read-out and setting: then `Cc1nc2cc(Cl)c(Nc3nc(=O)n(Cc4ccc[nH]c4=O)c(=O)n3Cc3cc(F)c(F)c(F)c3)cc2n1CCCS(C)(=O)=O` [Compound I-0446], with < 100 nM; and `CC(=O)N1CC(n2cc3cc(Nc4nc(=O)n(Cc5ccc[nH]c5=O)c(=O)n4Cc4cc(F)c(F)c(F)c4)c(Cl)cc3n2)C1` [Compound I-0448], with < 100 nM. Consider `CC(=O)NCCn1cc2cc(Nc3nc(=O)n(Cc4ccc[nH]c4=O)c(=O)n3Cc3cc(F)c(F)c(F)c3)c(Cl)cc2n1` [Compound I-0449], for which the IC50 (IC50) was < 100 nM. The same measure, in the same setting: the value for `CC(=O)NCCn1cc2cc(Nc3nc(=O)n(Cc4cc(Cl)c[nH]c4=O)c(=O)n3Cc3cc(F)c(F)c(F)c3)c(Cl)cc2n1` [Compound I-0453] was < 100 nM; that for `CC(=O)Nc1nc2ccc(Nc3nc(=O)n(Cc4ccc[nH]c4=O)c(=O)n3Cc3cc(F)c(F)c(F)c3)cc2s1` [Compound I-0458] was < 100 nM; that for `CNC(=O)COc1ccc(Nc2nc(=O)n(Cc3ccc[nH]c3=O)c(=O)n2Cc2cc(F)c(F)c(F)c2)c(Cl)c1` [Compound I-0463] was < 100 nM. Same read-out and setting: the value for `O=C(O)COc1ccc(Nc2nc(=O)n(Cc3ccc[nH]c3=O)c(=O)n2Cc2cc(F)c(F)c(F)c2)c(Cl)c1` [Compound I-0464] was < 100 nM. Still for that read-out and setting: then `O=c1[nH]cccc1Cn1c(=O)nc(Nc2cc3cn(CC4(CO)COC4)nc3cc2Cl)n(Cc2cc(F)c(F)c(F)c2)c1=O` [Compound I-0469], with < 100 nM; and `CNC(=O)c1c[nH]c(=O)c(Cn2c(=O)nc(Nc3cc4cn(C)nc4cc3Cl)n(Cc3cc(F)c(F)c(F)c3)c2=O)c1` [Compound I-0477], with < 100 nM. Regarding `CNC(=O)c1c[nH]c(=O)c(Cn2c(=O)nc(Nc3cc4c(cc3Cl)OCC4)n(Cc3cc(F)c(F)c(F)c3)c2=O)c1` [Compound I-0478], for the setting “IC50”, the concentration for half-maximal inhibition (IC50) was < 100 nM.

With `CNC(=O)Cn1c(=O)nc(Nc2cc3sc(C)nc3cc2C)n(Cc2cc(F)c(F)c(F)c2)c1=O` [Compound I-0479], the IC50 (IC50) lay in the range of 1000 to 10000 nM. The same measure, in the same setting: the value for `Cn1cnc(Cn2cc3cc(Nc4nc(=O)n(Cc5ncn(C)n5)c(=O)n4Cc4cc(F)c(F)c(Cl)c4)c(Cl)cc3n2)n1` [II-0004] was < 100 nM; that for `Cn1cc2cc(Nc3nc(=O)n(Cc4cc5ccsc5[nH]c4=O)c(=O)n3Cc3ccc(F)c(C#N)c3)ccc2n1` [II-0009] was < 100 nM. Same read-out and setting: the value for `CC(=O)Nc1nc2cc(F)c(Nc3nc(=O)n(Cc4ncn(C)n4)c(=O)n3Cc3cc(F)c(F)c(Cl)c3)cc2s1` [II-0012] was < 100 nM; that for `Cn1cnc(Cn2c(=O)nc(Nc3cc4c(=O)n(C)cnc4cc3Cl)n(Cc3cc(F)c(F)cc3F)c2=O)n1` [II-0013] was < 100 nM. The same measure, in the same setting: then `Cc1nc2cc(Cl)c(Nc3nc(=O)n(Cc4ncn(C)n4)c(=O)n3Cc3cc(F)c(F)cc3F)cc2n1C` [II-0019], with < 100 nM; and `Cc1cncc(-n2c(=O)nc(Nc3cc4cn(C)nc4cc3Cl)n(Cc3nc(Cl)c(Cl)n3C)c2=O)c1` [II-0021], with 3600 nM. Consider `Cn1cnc(Cn2c(=O)nc(Nc3cc4cn(CCS(C)(=O)=O)nc4cc3Cl)n(Cc3cc(Cl)c(F)cc3F)c2=O)n1` [II-0033], for which, for the setting “IC50”, the IC50 was < 100 nM.

Turning to `CN(C)C(=O)c1ccc(Cn2c(=O)nc(Nc3ccc4c(c3)CCCO4)n(Cc3cc(F)c(F)c(F)c3)c2=O)c(=O)[nH]1` [II-0042], the IC50 (IC50) was < 100 nM. On the same count and under the same terms, the value for `COC(=O)NC12CC(Nc3nc(=O)n(Cc4ccc[nH]c4=O)c(=O)n3Cc3cc(F)c(F)c(F)c3)(C1)C2` [II-0062] was < 100 nM; that for `Cc1cncc(-n2c(=O)nc(Nc3cc4sc(NCC5CC5)nc4cc3Cl)n(Cc3ccc(F)c(C#N)c3)c2=O)c1` [II-0081] was < 100 nM. The same measure, in the same setting: the value for `CC(=O)Nc1nc2cc(Cl)c(Nc3nc(=O)n(Cc4ncn(C)n4)c(=O)n3Cc3ccc(F)c(C#N)c3)cc2s1` [II-0083] was < 100 nM. In the case of `Cc1cncc(-n2c(=O)nc(Nc3cc4cn(C)nc4cc3Cl)n(C[C@@H]3CCCN3)c2=O)c1` [II-0085], the IC50 (50% SARS-CoV-2 3CL protease inhibitory concentration, RapidFire MS, read-out: IC50) was determined as 9200 nM. As to `Cc1cncc(-n2c(=O)nc(Nc3cc4cn(C)nc4cc3Cl)n(C[C@@H]3CCCN3C(=O)CNC(=O)C(F)(F)F)c2=O)c1` [II-0086], the IC50 (IC50) came out at 3400 nM. Take `Cn1cc2cc(Nc3nc(=O)n(Cc4nc[nH]n4)c(=O)n3Cc3cc(F)c(F)cc3F)c(Cl)cc2n1` [II-0091]: the IC50 (IC50) was < 100 nM.

In the case of `COc1ccnc(NC23CC(Nc4nc(=O)n(Cc5ncn(C)n5)c(=O)n4Cc4cc(F)c(F)c(F)c4)(C2)C3)n1` [II-0113], the IC50 (IC50) was < 100 nM. In turn, `COc1ncc(Nc2nc(=O)n(-c3cncc(C)c3)c(=O)n2Cc2ccc(F)c(C#N)c2)c(C)n1` [II-0124] had an IC50 (IC50) of 3300 nM. On the same count and under the same terms, the value for `Cn1cnc(Cn2c(=O)nc(Nc3cc4cn(CC(=O)N5CCCCC5)nc4cc3Cl)n(Cc3cc(Cl)c(F)cc3F)c2=O)n1` [II-0134] was < 100 nM. Same read-out and setting: the value for `COCCN(C)C(=O)Cn1cc2cc(Nc3nc(=O)n(Cc4ncn(C)n4)c(=O)n3Cc3cc(Cl)c(F)cc3F)c(Cl)cc2n1` [II-0135] was < 100 nM; that for `Cn1cnc(Cn2c(=O)nc(Nc3cc4cn(CC(=O)N5CC(F)(F)C5)nc4cc3Cl)n(Cc3cc(Cl)c(F)cc3F)c2=O)n1` [II-0136] was < 100 nM. Still for that read-out and setting: then `CNC(=O)Cn1cc2cc(Nc3nc(=O)n(Cc4ncn(C)n4)c(=O)n3Cc3cc(Cl)c(F)cc3F)c(Cl)cc2n1` [II-0137], with < 100 nM. As to `Cn1cnc(Cn2c(=O)nc(Nc3cc4cn(CC(=O)N5CCCC5)nc4cc3Cl)n(Cc3cc(Cl)c(F)cc3F)c2=O)n1` [II-0138], the IC50 (IC50) was < 100 nM. Still for that read-out and setting: then `Cn1cnc(Cn2c(=O)nc(Nc3cc4cn(CC(=O)N5CCOCC5)nc4cc3Cl)n(Cc3cc(F)c(F)c(Cl)c3)c2=O)n1` [II-0139], with < 100 nM. Same read-out and setting: then `COCCN(C)C(=O)Cn1cc2cc(Nc3nc(=O)n(Cc4ncn(C)n4)c(=O)n3Cc3cc(F)c(F)c(Cl)c3)c(Cl)cc2n1` [II-0141], with < 100 nM; and `Cn1cnc(Cn2c(=O)nc(Nc3cc4cn(CC(=O)N5CCCCC5)nc4cc3Cl)n(Cc3cc(F)c(F)c(Cl)c3)c2=O)n1` [II-0142], with < 100 nM. In the case of `Cn1cnc(Cn2c(=O)nc(Nc3cc4cn(CC(=O)N5CC(F)(F)C5)nc4cc3Cl)n(Cc3cc(F)c(F)c(Cl)c3)c2=O)n1` [II-0143], the IC50 (IC50) is < 100 nM. Turning to `CNC(=O)Cn1cc2cc(Nc3nc(=O)n(Cc4ncn(C)n4)c(=O)n3Cc3cc(F)c(F)c(Cl)c3)c(Cl)cc2n1` [II-0145], the IC50 (IC50) was < 100 nM. The same measure, in the same setting: then `CN(C(=O)Cn1cc2cc(Nc3nc(=O)n(Cc4ncn(C)n4)c(=O)n3Cc3cc(Cl)c(F)cc3F)c(Cl)cc2n1)C1CC1` [II-0146], with < 100 nM; and `Cn1cnc(Cn2c(=O)nc(Nc3cc4cn(CC(=O)N5CCCC5)nc4cc3Cl)n(Cc3cc(F)c(F)c(Cl)c3)c2=O)n1` [II-0147], with < 100 nM; and `Cn1cnc(Cn2c(=O)nc(Nc3cc4cn(CC(=O)NC5CC5)nc4cc3Cl)n(Cc3cc(Cl)c(F)cc3F)c2=O)n1` [II-0148], with < 100 nM. On the same count and under the same terms, the value for `Cn1cnc(Cn2c(=O)nc(Nc3cc4cn(CC(=O)N5CCC5)nc4cc3Cl)n(Cc3cc(Cl)c(F)cc3F)c2=O)n1` [II-0149] was < 100 nM; that for `CCNC(=O)Cn1cc2cc(Nc3nc(=O)n(Cc4ncn(C)n4)c(=O)n3Cc3cc(F)c(F)c(Cl)c3)c(Cl)cc2n1` [II-0150] was < 100 nM. The same measure, in the same setting: then `CCNC(=O)Cn1cc2cc(Nc3nc(=O)n(Cc4ncn(C)n4)c(=O)n3Cc3cc(Cl)c(F)cc3F)c(Cl)cc2n1` [II-0151], with < 100 nM. Take `Cn1cnc(Cn2c(=O)nc(Nc3cc4cn(CC(=O)NC5CC5)nc4cc3Cl)n(Cc3cc(F)c(F)c(Cl)c3)c2=O)n1` [II-0152]: the IC50 (IC50) is < 100 nM. On the same count and under the same terms, the value for `Cn1cnc(Cn2c(=O)nc(Nc3cc4cn(CC(=O)N5CCC5)nc4cc3Cl)n(Cc3cc(F)c(F)c(Cl)c3)c2=O)n1` [II-0153] was < 100 nM.
